Reference: patent US9005963B2, “Amino acid sequences directed against cellular receptors for viruses and bacteria” (Ablynx N.V., priority 2008, dated 2015)
Converted amounts (≈) assume the structure as drawn. Marks after values point to notes of the source that are not given here. Values belong to the molecule of their own block, whether it stands above or below them.

Experiments:
X4 HIV-1 NL4.3 [1] = test: HIV-1 infection assay MT-4/NL4.3 (cytopathic effect, MTS); format: cell-based; conditions: Human immunodeficiency virus 1; MT-4/NL4.3 exp. 1
CXCR4 [2] = target: T1, CXCR4 (Homo sapiens, UniProt P61073); conditions: 3 μM; control experiment; membranes from HEK293T cells transiently expressing CXCR4
T1 sequence (P61073 whole entry): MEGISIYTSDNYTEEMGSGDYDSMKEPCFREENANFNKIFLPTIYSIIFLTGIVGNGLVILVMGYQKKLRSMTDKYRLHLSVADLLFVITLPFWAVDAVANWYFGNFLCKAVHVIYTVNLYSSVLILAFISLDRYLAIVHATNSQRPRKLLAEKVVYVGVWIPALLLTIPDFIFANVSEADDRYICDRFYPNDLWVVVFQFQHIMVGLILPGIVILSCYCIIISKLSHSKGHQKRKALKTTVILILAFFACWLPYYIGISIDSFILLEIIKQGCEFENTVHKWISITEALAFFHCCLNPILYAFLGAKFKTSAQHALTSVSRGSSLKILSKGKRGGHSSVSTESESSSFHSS

X4 HIV-1 NL4.3 [3] = test: HIV-1 infection assay PBMC/NL4.3 (p24 Ag ELISA); format: cell-based; conditions: Human immunodeficiency virus 1, PBMC
Protocol: (§1) The CXCR4-using (X4) HIV-1 molecular clone NL4.3 was obtained from the National Institutes of Health NIAID AIDS Reagent program (Bethesda, Md.), the CCR5-using (R5) HIV-1 strain BaL was obtained from the Medical Research Council AIDS reagent project (Herts, UK). […] The MT-4 cells were seeded out in 96-well plate and the U87 cells in 24-well plates. The test compounds were added at different concentrations together with HIV-1 and the plates were maintained at 37° C. in 10% CO2. Cytopathic effect induced by the virus was monitored by daily microscopic evaluation of the virus-infected cell cultures. […] The absorbance was then measured spectrophotometrically at 490 nm with a 96-well plate reader (Molecular Devices, Sunnyvale, Calif.) and compared with four cell control replicates (cells without virus and drugs) and four virus control wells (virus-infected cells without drugs).
(§2) Peripheral blood mononuclear cells (PBMCs) from healthy donors were isolated by density centrifugation (Lymphoprep; Nycomed Pharma, AS Diagnostics, Oslo, Norway) and stimulated with phytohemagglutin (PHA) (Sigma Chemical Co., Bornem Belgium) for 3 days. The activated cells (PHA-stimulated blasts) were washed with PBS and viral infections were performed as described previously (Schols D, Struyf S, Van Damme J, Este J A, Henson G, De Clercq E. Inhibition of T-tropic HIV strains by selective antagonization of the chemokine receptor CXCR4. J Exp Med 1997; 186:1383-1388). At 8-10 days after the start of the infection, viral p24 Ag was detected in the culture supernatant by an enzyme-linked immunosorbent assay (Perkin Elmer, Brussels, Belgium).
(§3) The anti-HIV-1 potencies of NANOBODIES on the X4 HIV-1 clone NL4.3 or primary virus strains UG270 (X4, Clade D), CI#17 (X4, clade B), the R5 HIV-1 strain BaL or the R5/X4 HIV-1 HE strain in MT-4, U87.CD4.CXCR4, U87.CD4.CCR5 and/or phytohemagglutin-stimulated PBMCs from different donors were determined by measuring the cytopathic effect of HIV-1 (in MT-4 and U87 cell lines) microscopically and by tetrazolium-based colorimetric evaluation or by quantification of the viral p24 antigen production in the culture supernatant (PBMCs) as described in detail. Primary virus strains were grown 1 or 2 times in PBMC only.
Peripheral blood mononuclear cells (PBMCs) from healthy donors were isolated by density centrifugation (Lymphoprep; Nycomed Pharma, AS Diagnostics, Oslo, Norway) and stimulated with phytohemagglutin for 3 days. […] At 8-10 days after the start of the infection, viral p24 Ag was detected in the culture supernatant by an enzyme-linked immunosorbent assay (Perkin Elmer, Brussels, Belgium).

[4] = test system: HIV-1 CI#17 (X4, clade B); test: HIV-1 infection assay PBMC/primary isolate CI#17 (p24 Ag ELISA); format: cell-based; conditions: Human immunodeficiency virus 1, PBMC
Protocol: as §3
as §2, with “phytohemagglutin” for “phytohemagglutin (PHA) (Sigma Chemical Co., Bornem Belgium)”, “cells” for “cells (PHA-stimulated blasts)”, “et al. (1997)” for “Struyf S, Van Damme J, Este J A, Henson G, De Clercq E.”, “Med” for “Med 1997;”

CXCR4 [5] = target: T1, CXCR4; test: Competition binding with [125I]-CXCL12 on membranes from HEK293T cells transiently expressing CXCR4; parameters: expressed in transfected cells; host or cells: HEK293T, transient (pcDNA3.1-CXCR4); conditions: for Displacem. (%) of [125I]-CXCL12: maximal displacement, a: no significant displacement at 0.5 μM, b/c(B-6): maximum not reached, displacement at 0.5 μM
Protocol: (§4) Membranes from HEK293T cells transiently expressing CXCR3 or CXCR4 were prepared 48 h after transfection as follows. Cells were washed and scraped from the cell culture dishes with ice-cold PBS containing 1 mm EDTA. The scraped cells were pelleted at 1500×g for 10 min at 4° C. The pellet was washed and then resuspended in ice-cold membrane buffer (15 mM Tris, pH 7.5, 1 mM EGTA, 0.3 mM EDTA, and 2 mM MgCl2). The cell suspension was homogenized by 10 strokes at 1200 rpm using a Teflon-glass homogenizer and rotor and further subjected to three freeze-thaw cycles using liquid nitrogen. Membranes were separated by centrifugation at 40,000 g for 25 min at 4° C. The membrane pellet was washed and resuspended in ice-cold Tris-sucrose buffer (20 mM Tris, pH 7.4, and 250 mM sucrose) and frozen in liquid nitrogen. The total protein was determined using a Bradford assay (Bio-Rad).
Membranes were then harvested over polyethylenimine (0.5%)-treated Whatman GF/C filter plates and washed three times with ice cold binding buffer containing 500 mM NaCl. Plates were counted by liquid scintillation. […]

CXCR4 [6] = target: T1, CXCR4; test: Competition binding with [125I]-238D4 on membranes from HEK293T cells transiently expressing CXCR4; parameters: expressed in transfected cells; host or cells: HEK293T, transient (pcDNA3.1-CXCR4)
Protocol: as §4
(§5) Membranes were then harvested over polyethylenimine (0.5%)-treated Whatman GF/C filter plates and washed three times with ice cold binding buffer containing 500 mM NaCl. Plates were counted by liquid scintillation.

[7] = test system: HIV-1 UG270 (X4, Clade D); test: HIV-1 infection assay PBMC/primary isolate UG270 (p24 Ag ELISA); format: cell-based; conditions: Human immunodeficiency virus 1, PBMC
Protocol: as §3
as §2, with “phytohemagglutin” for “phytohemagglutin (PHA) (Sigma Chemical Co., Bornem Belgium)”, “cells” for “cells (PHA-stimulated blasts)”, “et al. (1997)” for “Struyf S, Van Damme J, Este J A, Henson G, De Clercq E.”, “Med” for “Med 1997;”

CXCR4 [8] = target: T1, CXCR4; test: Competition binding with [125I]-238D2 on membranes from HEK293T cells transiently expressing CXCR4; parameters: expressed in transfected cells; host or cells: HEK293T, transient (pcDNA3.1-CXCR4)
Protocol: as §4, §5

R5 HIV-1 BaL [9] = test: HIV-1 infection assay U87.CD4.CCR5/BaL (MTS); format: cell-based; conditions: read-out: Anti-HIV-1 activity (IC50)
R5 HIV-1 BaL [10] = test: HIV-1 infection assay PBMC/BaL (p24 Ag ELISA); format: cell-based
Protocol: as §1, §2, §3
as §2, with “phytohemagglutin” for “phytohemagglutin (PHA) (Sigma Chemical Co., Bornem Belgium)”, “cells” for “cells (PHA-stimulated blasts)”, “et al. (1997)” for “Struyf S, Van Damme J, Este J A, Henson G, De Clercq E.”, “Med” for “Med 1997;”

[11] = 238C5 only at high concentrations (≧100 nM)
[12] = maximal displacement, a: no significant displacement at 0.5 μM, b: displacement at 0.5 μM

displacement of [125I]-CXCL12 (CXCR4 [2]): full
IC50 (X4 HIV-1 NL4.3 [3]; PBMC + NL4.3 donor 1): 0.0011 µg/mL
IC90 (X4 HIV-1 NL4.3 [3]; PBMC + NL4.3 donor 1): 0.0099 µg/mL
IC50 (X4 HIV-1 NL4.3 [3]; PBMC + NL4.3 donor 2): > 0.04 µg/mL
IC90 (X4 HIV-1 NL4.3 [3]; PBMC + NL4.3 donor 2): > 0.04 µg/mL
IC50 ([4]; PBMC + CI#17 donor 1): 0.0121 µg/mL
IC90 ([4]; PBMC + CI#17 donor 1): > 0.04 µg/mL
IC50 ([4]; PBMC + CI#17 donor 2): 0.0149 µg/mL
IC90 ([4]; PBMC + CI#17 donor 2): 0.0379 µg/mL
Displacem. (%) of [125I]-CXCL12 (CXCR4 [5]): 94 ± 2%
displacement of [125I]-238D4 (in words) (CXCR4 [6]; [11]): displaced
Displacem. (%) of [125I]-238D4 (CXCR4 [6]; [12]): 99 ± 4%
IC50 ([7]; PBMC + UG270 donor 1): 0.0036 µg/mL
IC90 ([7]; PBMC + UG270 donor 1): 0.0154 µg/mL
IC50 ([7]; PBMC + UG270 donor 2): 0.0179 µg/mL
IC90 ([7]; PBMC + UG270 donor 2): 0.0341 µg/mL
displacement of [125I]-238D2 (in words) (CXCR4 [8]; [11]): displaced
Displacem. (%) of [125I]-238D2 (CXCR4 [8]; [12]): 102 ± 1%
Molecule: c1cc(CN2CCCNCCNCCCNCC2)ccc1CN1CCCNCCNCCCNCC1 [AMD3100]
IC50 (X4 HIV-1 NL4.3 [1]): 0.0064 µg/mL (≈ 0.0127 µM)
IC90 (X4 HIV-1 NL4.3 [1]): > 0.04 µg/mL

Molecule: maraviroc
IC50 (R5 HIV-1 BaL [9]): 0.72 nM
IC50 (R5 HIV-1 BaL [10]; PBMC + BaL donor 1): 0.0015 µg/mL
IC90 (R5 HIV-1 BaL [10]; PBMC + BaL donor 1): 0.0273 µg/mL
IC50 (R5 HIV-1 BaL [10]; PBMC + BaL donor 2): 0.0008 µg/mL
IC90 (R5 HIV-1 BaL [10]; PBMC + BaL donor 2): 0.0131 µg/mL
IC50 (R5 HIV-1 BaL [10]; read-out: Anti-HIV-1 activity (IC50), PBMC/BaL): 3.13 nM

pKi ([125I]-CXCL12) (CXCR4 [5]; HEK293T-CXCR4 membranes): <7.00
Rel. potency, relative to monovalent 238D2 (CXCR4 [5]; [125I]-CXCL12 displacement affinity, fold): <0.1^a
Displacem. (%) of [125I]-CXCL12 (CXCR4 [5]): 43 ± 11^c %
B1: 238D2-20GS-238B10: bivalent Nanobody, SEQ ID NO: 266 (protein)
chain: EVQLVESGGGLVQTGGSLRLSCAASGFTFSSYAMSWVRQAPGKGLEWVSGIKSSGDSTRYAGSVKGRFTISRDNAKNMLYLQMYSLKPEDTAVYYCAKSRVSRTGLYTYDNRGQGTQVTVSSGGGGSGGGGSGGGGSGGGGSEVQLVESGGGFVQAGGSLRLSCETSGRPLLGYTIAWFRQVPGKEREFVAYHRWSDGANLYADSVKGRFTISGHNAKNTVSLQMNSLKPEDTAVYYCAAARMTTSNDKEYLYWGQGTQVTVSS
modifications: Nanobodies
